Legend:
[1] = Concentration of 14C-GA3 in germinating soybean seedlings after seed treatment; assay type: in vivo, Glycine max
Source text: Application of ^14C-GA3 to Asgrow 3237 soybeans as a seed treatment via the hilum at a rate (5-20 ppm) within the range effective in rescuing the hypocotyl of dwarf, GA-deficient plants causes a substantial oversupply in the level of GA3 compared to the levels of endogenous bioactive gibberellins GA1 and GA4 in germinating soybean seeds (FIG. 39). The data upon which FIG. 39 is based are taken from the experiment described below in the section entitled “Determination of half-lives and distribution of ^14C-labeled GA compounds in planta”. More particularly, the data in FIG. 39 are taken from the experiment in which ^14C-GA3 is applied to the hilum at 20 ppm.
The concentration of GA3 in the seedling axis appeared to be directly proportional to the amount of GA3 applied to the seed.
The details are as follows.

A3237 soybean = experiment: GA3 soil drench, shoot length of control soybean; assay type: in vivo, Glycine max; settings: line A3237; +3 × 10^−6 M GA3 soil drench; 7 days after planting
Source text: Thirty-five soybean plants are produced by transformation with pMON29801 (FIG. 7) containing the antisense CPS conserved core (asCPScc) gene driven by constitutive FMV promoter. The seed (R1) from the initial R0 transgenic lines is collected. R1 seeds are sown in 4-inch pots filled with commercial potting soil (Metromix 350) that is saturated with water or GA3 at a rate of either 3×10^−6 or 10^−5 M. Typically, 20 seeds are sown in 10 pots for each treatment, except where the seed supply is limiting. Pots are incubated in a greenhouse routinely used for soybean growth. Emergence is scored versus days after planting (DAP). Two soybean lines, 724 and 720, show a delayed emergence phenotype. Line 724 emergence is 1 to 2 days later than the control.
GA3 added to plasmid pMON29801 transgenic soybean seeds as a soil drench also restores soybean emergence timing and plant height during early seedling growth. Rates of GA3 between 1×10^−6 and 1×10^−5 M, when added to soil either immediately before planting or immediately after, restores normal shoot length in emerged Line #719 seedlings (Table 5).

C=C1C[C@]23C[C@@]1(O)CC[C@H]2[C@@]12C=C[C@H](O)[C@@](C)(C(=O)O1)[C@H]2[C@@H]3C(=O)O [GA3, gibberellic acid]
GA3 in seedling axis relative to combined endogenous bioactive GAs in untreated tissue ([1]; 20 ppm, 1 DAP): approximately 100 times higher
concentration at 1 day after planting ([1]; Asgrow 3237, soybean (Glycine max), seedling axis, other: seed treatment applied to the hilum, ^14C-GA3 applied to the hilum at 20 ppm, one day after planting, read-out: calculated concentration of GA3 delivered to the seedling axis): 4.31 µM
Plant height (cm) (A3237 soybean): 14.9 (0.3) cm

Source: US6723897B2, “Methods for controlling gibberellin levels” (Monsanto Technology, LLC, priority 1998, dated 2004)
